Measured values: PubChem BioAssay (NCI)
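Test compounds were applied to cells in 96-well plates for 48 hours at 5 doses. GI50 = concentration required for 50% inhibition of growth. TGI: total growth inhibition.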

What was measured:
Assay in all cases: DTP human tumour cell line panel, 48 h
KM12 colon = system: KM12 colon
EKVX NSCLC = system: EKVX NSCLC
UACC-257 melanoma = system: UACC-257 melanoma
SNB-19 CNS = system: SNB-19 CNS
M14 melanoma = system: M14 melanoma
NCI-H226 lung = system: NCI-H226 lung
BT-549 breast = system: BT-549 breast
PC-3 prostate = system: PC-3 prostate
HCC-2998 colon = system: HCC-2998 colon
MDA-MB-231 breast = system: MDA-MB-231 breast
SNB-75 CNS = system: SNB-75 CNS
OVCAR-4 ovarian = system: OVCAR-4 ovarian
UACC-62 melanoma = system: UACC-62 melanoma
CAKI-1 renal = system: CAKI-1 renal
SF-268 CNS = system: SF-268 CNS
786-0 renal = system: 786-0 renal
HCT-116 colon = system: HCT-116 colon
NCI-H460 lung = system: NCI-H460 lung
SK-OV-3 ovarian = system: SK-OV-3 ovarian
SK-MEL-5 melanoma = system: SK-MEL-5 melanoma
NCI-H23 lung = system: NCI-H23 lung
SK-MEL-28 melanoma = system: SK-MEL-28 melanoma
SK-MEL-2 melanoma = system: SK-MEL-2 melanoma
MCF7 breast = system: MCF7 breast
RPMI-8226 leukemia = system: RPMI-8226 leukemia
NCI/ADR-RES ovarian = system: NCI/ADR-RES ovarian
RXF 393 renal = system: RXF 393 renal
HOP-92 NSCLC = system: HOP-92 NSCLC
HS 578T breast = system: HS 578T breast
MALME-3M melanoma = system: MALME-3M melanoma
IGROV1 ovarian = system: IGROV1 ovarian
COLO 205 colon = system: COLO 205 colon
HCT-15 colon = system: HCT-15 colon
TK-10 renal = system: TK-10 renal
T-47D breast = system: T-47D breast
MDA-MB-435 = system: MDA-MB-435
K-562 leukemia = system: K-562 leukemia
A549 NSCLC = system: A549 NSCLC
ACHN renal = system: ACHN renal
UO-31 renal = system: UO-31 renal
SF-295 CNS = system: SF-295 CNS
LOX IMVI melanoma = system: LOX IMVI melanoma
A498 renal = system: A498 renal
SF-539 CNS = system: SF-539 CNS
HT29 colon = system: HT29 colon
OVCAR-8 ovarian = system: OVCAR-8 ovarian
OVCAR-5 ovarian = system: OVCAR-5 ovarian
OVCAR-3 ovarian = system: OVCAR-3 ovarian
SW-620 colon = system: SW-620 colon
NCI-H522 lung = system: NCI-H522 lung
SN12C renal = system: SN12C renal
HOP-62 NSCLC = system: HOP-62 NSCLC
HL-60(TB) leukemia = system: HL-60(TB) leukemia
U251 CNS = system: U251 CNS
MOLT-4 leukemia = system: MOLT-4 leukemia
DU-145 prostate = system: DU-145 prostate

O=C1c2ccccc2-c2c1c1ccccc1c(=O)n2CCNCCNCCn1c2c(c3ccccc3c1=O)C(=O)c1ccccc1-2
GI50 (KM12 colon): 0.0327 µM
TGI (KM12 colon): 1.72 µM
GI50 (EKVX NSCLC): 10.6 µM
TGI (EKVX NSCLC): 27.2 µM
GI50 (UACC-257 melanoma): 11.3 µM
TGI (UACC-257 melanoma): > 48.4 µM
GI50 (SNB-19 CNS): 1.14 µM
TGI (SNB-19 CNS): 20.5 µM
GI50 (M14 melanoma): 2.58 µM
TGI (M14 melanoma): 33.4 µM
GI50 (NCI-H226 lung): 0.22 µM
TGI (NCI-H226 lung): 18.9 µM
GI50 (BT-549 breast): 3.47 µM
TGI (BT-549 breast): 17.4 µM
GI50 (PC-3 prostate): 0.701 µM
TGI (PC-3 prostate): 19.3 µM
GI50 (HCC-2998 colon): 0.279 µM
TGI (HCC-2998 colon): 14.9 µM
GI50 (MDA-MB-231 breast): 0.432 µM
TGI (MDA-MB-231 breast): 5.72 µM
GI50 (SNB-75 CNS): 7.95 µM
TGI (SNB-75 CNS): 47.5 µM
GI50 (OVCAR-4 ovarian): 1.43 µM
TGI (OVCAR-4 ovarian): 14.9 µM
GI50 (UACC-62 melanoma): 0.338 µM
TGI (UACC-62 melanoma): 8.79 µM
GI50 (CAKI-1 renal): 0.527 µM
TGI (CAKI-1 renal): 18.4 µM
GI50 (SF-268 CNS): 0.241 µM
TGI (SF-268 CNS): 10 µM
GI50 (786-0 renal): 0.0267 µM
TGI (786-0 renal): 2.37 µM
GI50 (HCT-116 colon): 0.0159 µM
TGI (HCT-116 colon): 1.42 µM
GI50 (NCI-H460 lung): 0.0246 µM
TGI (NCI-H460 lung): 7.59 µM
GI50 (SK-OV-3 ovarian): 12.8 µM
TGI (SK-OV-3 ovarian): 36.2 µM
GI50 (SK-MEL-5 melanoma): 0.957 µM
TGI (SK-MEL-5 melanoma): 19.9 µM
GI50 (NCI-H23 lung): 0.717 µM
TGI (NCI-H23 lung): > 30.6 µM
GI50 (SK-MEL-28 melanoma): 2.9 µM
TGI (SK-MEL-28 melanoma): 24.5 µM
GI50 (SK-MEL-2 melanoma): 19.1 µM
TGI (SK-MEL-2 melanoma): > 48.2 µM
GI50 (MCF7 breast): 0.109 µM
TGI (MCF7 breast): 1.06 µM
GI50 (RPMI-8226 leukemia): 0.011 µM
TGI (RPMI-8226 leukemia): 1.24 µM
GI50 (NCI/ADR-RES ovarian): 1.11 µM
TGI (NCI/ADR-RES ovarian): 11.1 µM
GI50 (RXF 393 renal): 0.114 µM
TGI (RXF 393 renal): 10.3 µM
GI50 (HOP-92 NSCLC): 17.4 µM
TGI (HOP-92 NSCLC): 39.7 µM
GI50 (HS 578T breast): 4.28 µM
TGI (HS 578T breast): 38.5 µM
GI50 (MALME-3M melanoma): 0.207 µM
TGI (MALME-3M melanoma): 16.2 µM
GI50 (IGROV1 ovarian): 1.02 µM
TGI (IGROV1 ovarian): > 21.2 µM
GI50 (COLO 205 colon): 2.62 µM
TGI (COLO 205 colon): > 60.8 µM
GI50 (HCT-15 colon): 0.0545 µM
TGI (HCT-15 colon): 1.31 µM
GI50 (TK-10 renal): 1.06 µM
TGI (TK-10 renal): 4.11 µM
GI50 (T-47D breast): 18.1 µM
TGI (T-47D breast): 41.5 µM
GI50 (MDA-MB-435): 0.97 µM
TGI (MDA-MB-435): 19.6 µM
GI50 (K-562 leukemia): 0.33 µM
TGI (K-562 leukemia): > 100 µM
GI50 (A549 NSCLC): 0.231 µM
TGI (A549 NSCLC): > 38.2 µM
GI50 (ACHN renal): 0.0217 µM
TGI (ACHN renal): 17 µM
GI50 (UO-31 renal): 0.519 µM
GI50 (SF-295 CNS): 0.0917 µM
TGI (SF-295 CNS): 10.8 µM
GI50 (LOX IMVI melanoma): 0.0437 µM
TGI (LOX IMVI melanoma): 1.76 µM
GI50 (A498 renal): 14.4 µM
TGI (A498 renal): 29.9 µM
GI50 (SF-539 CNS): 0.542 µM
TGI (SF-539 CNS): 12.3 µM
GI50 (HT29 colon): 0.017 µM
TGI (HT29 colon): > 100 µM
GI50 (OVCAR-8 ovarian): 0.226 µM
TGI (OVCAR-8 ovarian): 2.29 µM
GI50 (OVCAR-5 ovarian): 8.91 µM
TGI (OVCAR-5 ovarian): 34.5 µM
GI50 (OVCAR-3 ovarian): 1.02 µM
TGI (OVCAR-3 ovarian): 8.98 µM
GI50 (SW-620 colon): 0.0296 µM
TGI (SW-620 colon): 1.93 µM
GI50 (NCI-H522 lung): 2.28 µM
GI50 (SN12C renal): 0.13 µM
TGI (SN12C renal): 14.1 µM
GI50 (HOP-62 NSCLC): 0.0288 µM
TGI (HOP-62 NSCLC): 4.5 µM
GI50 (HL-60(TB) leukemia): 98.5 µM
TGI (HL-60(TB) leukemia): > 100 µM
GI50 (U251 CNS): 0.0382 µM
TGI (U251 CNS): 1.59 µM
TGI (MOLT-4 leukemia): > 100 µM
GI50 (DU-145 prostate): 0.179 µM
TGI (DU-145 prostate): 4.61 µM
